# Experimental data taken from patent US20230132378A9, “COMPOSITIONS AND METHODS FOR TREATING HEMORRHAGIC STROKE” (UNM RAINFOREST INNOVATIONS, priority 2017, published 2023).
# Columns and labels:
# ICH-induced brain damage = assay: Brain damage by T2-weighted MRI after collagenase-induced ICH; format: in vivo, rat
# Experimental: (§1) The Laboratory Animal Care and Use Committee of the University of New Mexico approved all experimental protocols. The animals were used in compliance with the NIH Guide for Care and Use of Laboratory Animals. Male Sprague Dawley rats (Charles River Laboratories, Inc., Wilmington, Mass.) weighing 290 g to 320 g were anesthetized with isoflurane (5% for induction, 2% for maintenance) in N2O/O2 (70:30%) during surgical procedures, and the body temperature was maintained at 37.5° C.±0.5° C. using a heating pad. A small burr hole was made at 3.5 mm right of the bregma. 0.2 U collagenase (Sigma-Aldrich, St. Louis, Mo.) in 1 μl sterile saline was injected to 6.0 mm deep through the burr hole. The needle was removed at five minutes after collagenase injection to prevent backflow. A total of 49 rats were used in this study.
# All multimodal magnetic resonance imaging (MRI) of the rat was performed by using a 4.7-Tesla MRI scanner (Bruker Biospin, Billerica, Mass.), which was equipped with a 40-cm bore, a 660 mT/m (rise time within 120 μs) gradient and shim systems (Bruker Biospin, Billerica, Mass.). The rats were anaesthetized with 2% isoflurane (Clipper Distributing Company, LLC, St. Joseph, Mo.) during MRI. At the same time respiration and heart rate were monitored. The body temperature of the rats was maintained at 37.0° C.±0.5° C. […]
# [1] = tested on: cell death in the hemorrhagic brain; assay: Brain cell death by TUNEL assay after collagenase-induced ICH; format: in vivo, rat
# Experimental: as §1, with “study. […]” for “study.”
# A standard terminal deoxynucleotidyl transferase—mediated dUTP nick-end labeling (TUNEL) procedure for frozen tissue sections was performed (Click-iT TUNEL Alexa Fluor 488 Imaging Assay kit (Thermo Fisher Scientific, Waltham, Mass.). Histological images were captured on a fluorescence microscope (Olympus IX71, Olympus Corp., Center Valley, Pa.) with a TRITC dichroic mirror.
# [2] = tested on: labile zinc accumulation in brain tissue after hemorrhagic stroke; assay: Labile zinc staining (Fluozin-3) on brain slices after collagenase-induced ICH; format: in vivo, rat; details: rats pretreated with 10 mg/kg i.p. one hour before collagenase injection; versus saline control
# Experimental: as §1, with “study. […]” for “study.”
# To detect labile zinc in brain tissue, cryosections 16 μm thick were stained with the zinc-specific membrane-permeable fluorescent dyes Fluozin-3 (Invitrogen, Thermo Fisher Scientific, Carlsbad, Calif.). […] After washing in saline, images were acquired by a fluorescence microscope (Olympus IX71, Olympus Corp., Center Valley, Pa.) with a GFP dichroic mirror.
# [3] = tested on: ZnPP generation in the hemorrhagic brain; assay: ZnPP autofluorescence imaging on hemorrhagic brain slices; format: in vivo, rat
# Experimental: as §1
# N,N,N′,N′-tetrakis-(2-Pyridylmethyl)ethylenediamine (TPEN, Sigma-Aldrich, St. Louis, Mo.) was dissolved in dimethyl sulfoxide (DMSO) to 25 mg/ml and then further diluted in physiological saline to a final concentration of 2.5 mg/ml. 10 mg/kg TPEN was intraperitoneal injected at one hour before collagenase injection. Saline with 10% DMSO was used as control.
# N-methyl protoporphyrin IX (Santa Cruz Biotechnology, Inc., Dallas, Tex.), a ferrochelatase inhibitor was dissolved in DMSO to 200 mg/ml and then further diluted in physiological saline to a final concentration of 20 mg/ml. […]
# [4] = tested on: ZnPP in hemorrhagic hemisphere tissue; assay: Fluorescence spectrophotometry of ZnPP in brain tissue extract; format: in vivo, rat; details: TPEN pretreatment
# Experimental: as §1, with “study. […]” for “study.”
# The animals were euthanized at 24 hours after collagenase injection. […] After centrifugation at 13,000×g, the fluorescence intensity (excitation=416 nm, emission=588 nm) was determined using a SpectraMax M2 Multi-Mode Microplate Readers (Molecular Devices LLC, Sunnyvale, Calif.) as previously described (Nakamura et al., 2011. J Control Release 155(3):367-375. After being treated with heparin as an anti-coagulant, 50 μl blood was diluted in ethanol. Followed by centrifugation, the fluorescence intensity of ZnPP in the ethanol extract supernatant was measured.
# whole rat blood = assay: ZnPP generation in whole blood with zinc under hypoxia; details: 100 μM zinc, hypoxia three hours, P=0.00096
# Experimental: The animals were euthanized at 24 hours after collagenase injection. The brains were harvested and cut into 2-mm thick coronal slice. The tissue with visible blood at the hemorrhagic hemisphere of each slice was collected. And the tissue at the corresponding location at the contralateral hemisphere was also collected. The tissue was homogenized on ice in ethanol. After centrifugation at 13,000×g, the fluorescence intensity (excitation=416 nm, emission=588 nm) was determined using a SpectraMax M2 Multi-Mode Microplate Readers (Molecular Devices LLC, Sunnyvale, Calif.) as previously described (Nakamura et al., 2011. J Control Release 155(3):367-375. After being treated with heparin as an anti-coagulant, 50 μl blood was diluted in ethanol. Followed by centrifugation, the fluorescence intensity of ZnPP in the ethanol extract supernatant was measured.
# Blood was drawn from normal Sprague Dawley rats. Blood was subjected to hypoxia by incubating in a humidified airtight chamber (Billups-Rothenberg, Inc., San Diego, Calif.) equipped with an air lock and flushed with 95% N2/5% CO2 for 15 minutes. Then the chamber was scaled and kept at 37° C. for three hours.
# heme oxygenase-1 (HO-1) = biological target: T1, heme oxygenase-1 (HO-1) (Homo sapiens, UniProt P09601); details: levels as low as; cited from earlier work
# T1 sequence (P09601 1-288): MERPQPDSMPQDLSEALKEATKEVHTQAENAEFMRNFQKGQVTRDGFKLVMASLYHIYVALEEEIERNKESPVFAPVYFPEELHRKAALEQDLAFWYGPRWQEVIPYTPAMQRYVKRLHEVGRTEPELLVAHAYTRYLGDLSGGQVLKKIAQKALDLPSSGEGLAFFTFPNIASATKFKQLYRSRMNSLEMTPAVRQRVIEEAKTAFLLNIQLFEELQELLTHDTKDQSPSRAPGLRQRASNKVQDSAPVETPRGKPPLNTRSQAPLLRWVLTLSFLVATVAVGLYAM
# primary neurons = assay: Cytotoxicity (Cytotox 96 LDH release) in primary neurons; format: cell-based; details: for neuron toxicity under hypoxia / cell death in normoxia: three-hour exposure; for neuron toxicity under hypoxia: 2.5-7.5 μM; for cell death in normoxia: any concentration tested
# primary astrocytes = assay: Cytotoxicity (Cytotox 96 LDH release) in primary astrocytes; format: cell-based; details: three-hour exposure, 5 and 7.5 μM
# Experimental: Astrocytic death rate was measured using Cytotox 96 nonradioactive cytotoxicity assay kit (Promega, Madison, Wis.), which quantitatively measures lactate dehydrogenase (LDH) release from dead cells. Astroytes (5×10^3 cells/well) were seeded into 96-well microtiter plates. Following three hours normoxia or hypoxia treatment, 50 μl of the reconstituted substrate mixture was added to each well of the plate. Thirty minutes later, 50 μl of the stop solution was added to each well, and the absorbance was measured at 490 nm in a microplate reader (Bio-Rad 3350, Bio-Rad Laboratories, Inc. Hercules, Calif.). Triton-X 100-treated cells were used as 100% cell death control. The cell death rate was calculated by using the formula: Cell death rate=(Experimental absorbance value−culture medium absorbance value)/(Triton-X 100-treated absorbance value−culture medium absorbance value).
# [5] = tested on: brain of permanent MCAO rat model; assay: ZnPP injection into brain parenchyma of MCAO or normal rats, T2-weighted MRI; format: in vivo; details: MCAO rats, ZnPP 10 μg/kg into brain parenchyma of ischemic side
# Experimental: All multimodal magnetic resonance imaging (MRI) of the rat was performed by using a 4.7-Tesla MRI scanner (Bruker Biospin, Billerica, Mass.), which was equipped with a 40-cm bore, a 660 mT/m (rise time within 120 μs) gradient and shim systems (Bruker Biospin, Billerica, Mass.). The rats were anaesthetized with 2% isoflurane (Clipper Distributing Company, LLC, St. Joseph, Mo.) during MRI. At the same time respiration and heart rate were monitored. The body temperature of the rats was maintained at 37.0° C.±0.5° C. The success of the intracerebral hemorrhage model and brain damage was estimated by T2-weighted images. T2-weighted images were acquired with a fast spin-echo sequence (rapid acquisition with relaxation enhancement (RARE)) (Repetition Time (TR)/Echo Time (TE)=5,000 ms/56 ms, Field of View (FOV)=4 cm×4 cm, slice thickness=1 mm, inter-slice distance=1.1 mm, number of slices=12, matrix=256×256, number of average=3).
# Middle cerebral artery occlusion (MCAO) surgery was used to induce focal cerebral ischemia through intraluminal filament methods as described previously (Zhao et al., 2014, Stroke 45:1139-1147). The animals underwent right MCAO for 24 hours. ZnPP (10 μg/kg) in […] or 5 μl saline was injected to 6.0 mm deep at 3.5 mm right of the bregma through a burr hole on normal or MCAO rat, 10 minutes after MCAO onset.
# ferrochelatase = biological target: T2, ferrochelatase (Homo sapiens, UniProt P22830); details: cited from earlier work
# T2 sequence (P22830 55-423): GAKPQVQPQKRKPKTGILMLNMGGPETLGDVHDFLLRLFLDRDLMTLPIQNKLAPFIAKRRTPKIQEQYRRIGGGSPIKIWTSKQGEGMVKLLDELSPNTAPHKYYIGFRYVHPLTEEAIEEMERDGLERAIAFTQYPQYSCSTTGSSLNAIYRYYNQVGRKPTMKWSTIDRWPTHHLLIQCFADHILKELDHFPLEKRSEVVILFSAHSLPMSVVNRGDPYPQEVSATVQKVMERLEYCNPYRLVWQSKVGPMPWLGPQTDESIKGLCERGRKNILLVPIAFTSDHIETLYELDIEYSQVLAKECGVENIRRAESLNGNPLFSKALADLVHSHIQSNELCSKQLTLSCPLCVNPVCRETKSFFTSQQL
compound,measurement,setting,value
"c1ccc(CN(CCN(Cc2ccccn2)Cc2ccccn2)Cc2ccccn2)nc1 [TPEN, N,N,N′,N′-tetrakis-(2-Pyridylmethyl)ethylenediamine]",hyperintense lesion on T2-weighted MRI (brain damage),"ICH-induced brain damage; TPEN pretreatment, 24 hours after collagenase-induced ICH",significantly reduced
same,TUNEL signal (cell death) at edge of hemorrhagic area,[1]; TPEN 10 mg/kg i.p. one hour before collagenase injection,markedly decreased
same,zinc fluorescence signal (Fluozin-3) around hemorrhagic area,[2],significantly reduced
same,ZnPP fluorescence on brain slices,"[3]; TPEN pretreatment, 24 hours after collagenase injection, P=0.0034",significantly decreased
same,ZnPP formed at the hemorrhagic hemisphere (fluorescence intensity at 588 nm),[4],significantly reduced
same,zinc-induced ZnPP generation in hypoxic blood,whole rat blood,decreased
"C=CC1=C(C)c2cc3[n-]c(cc4nc(cc5[n-]c(cc1n2)c(C)c5C=C)C(C)=C4CCC(=O)O)c(CCC(=O)O)c3C.[Zn+2] [ZnPP, zinc protoporphyrin]",level significantly decreasing HO-1 activity,heme oxygenase-1 (HO-1),0.15
same,neuron toxicity under hypoxia,primary neurons; hypoxia,significant dose-dependent increases
same,toxicity in hypoxia compared with hemin (neurons),"primary neurons; hypoxia, 2.5 μM P=0.0092, 5 μM P=0.0046, 7.5 μM P=0.0059",greater than that of hemin
same,cell death in normoxia,primary neurons,Neither ZnPP nor hemin induced significant cell death
same,astrocyte toxicity in hypoxia,primary astrocytes,dose dependent increase in toxicity
same,brain damage area on T2-weighted MRI after ZnPP injection,[5],significantly increased
N-methyl protoporphyrin IX [N-methyl PP],brain damage in ICH by T2-weighted MRI,"ICH-induced brain damage; N-methyl PP pretreatment one hour before collagenase-induced ICH, P=0.043",significantly reduced
same,number of TUNEL positive cells relative to saline treated control group,"[1]; N-methyl PP 100 mg/kg i.p. pretreatment, P=0.000039",14%
same,reduction of ZnPP fluorescence in brain tissue versus no treatment,"[3]; N-methyl PP 100 mg/kg i.p. one hour before ICH induction, P=0.0037",about two thirds
same,inhibition of ferrochelatase,ferrochelatase,potently inhibited
hemin,neuron toxicity under hypoxia,primary neurons; hypoxia,significant dose-dependent increases
same,cell death in normoxia,primary neurons,Neither ZnPP nor hemin induced significant cell death
same,astrocyte toxicity in hypoxia,primary astrocytes,did not
